We go through 32 compounds from paper PMC4648043, “Development of Small-Molecule Trypanosoma brucei N-Myristoyltransferase Inhibitors: Discovery and Optimisation of a Novel Binding Mode” (Chemmedchem, 2015).

Molecules are shown by their SMILES. pEC50, pIC50: −log10 of the molar value.

Assay [1] deals with T1, TbNMT (Trypanosoma brucei brucei, UniProt Q388H8).
T1 sequence (Q388H8 1-446): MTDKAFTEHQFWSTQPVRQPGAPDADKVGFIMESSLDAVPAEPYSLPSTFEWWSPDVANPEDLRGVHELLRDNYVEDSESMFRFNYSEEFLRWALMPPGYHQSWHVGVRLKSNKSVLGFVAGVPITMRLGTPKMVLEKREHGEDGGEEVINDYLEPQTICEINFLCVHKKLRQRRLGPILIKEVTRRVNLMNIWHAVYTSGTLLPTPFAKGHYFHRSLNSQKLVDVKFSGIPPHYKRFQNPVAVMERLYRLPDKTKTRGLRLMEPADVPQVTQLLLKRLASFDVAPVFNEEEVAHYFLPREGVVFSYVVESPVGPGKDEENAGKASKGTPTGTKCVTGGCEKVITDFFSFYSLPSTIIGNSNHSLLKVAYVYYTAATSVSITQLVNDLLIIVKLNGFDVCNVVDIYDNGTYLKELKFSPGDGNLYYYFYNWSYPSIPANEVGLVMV
Briefly: biochemical. Type of assay: biochemical. The note with it: for LE TbNMT (ligand efficiency): calculated as 0.6 ln(IC50)/(heavy atom count); for pIC50: mean of two or more determinations, read-out: IC50 TbNMT.
Protocol: (§1) Parasite and NMT assays: These were carried out as described previously.[8–10]

Assay [2] addresses T2, hNMT (Homo sapiens, UniProt P30419).
T2 sequence (P30419 1-496): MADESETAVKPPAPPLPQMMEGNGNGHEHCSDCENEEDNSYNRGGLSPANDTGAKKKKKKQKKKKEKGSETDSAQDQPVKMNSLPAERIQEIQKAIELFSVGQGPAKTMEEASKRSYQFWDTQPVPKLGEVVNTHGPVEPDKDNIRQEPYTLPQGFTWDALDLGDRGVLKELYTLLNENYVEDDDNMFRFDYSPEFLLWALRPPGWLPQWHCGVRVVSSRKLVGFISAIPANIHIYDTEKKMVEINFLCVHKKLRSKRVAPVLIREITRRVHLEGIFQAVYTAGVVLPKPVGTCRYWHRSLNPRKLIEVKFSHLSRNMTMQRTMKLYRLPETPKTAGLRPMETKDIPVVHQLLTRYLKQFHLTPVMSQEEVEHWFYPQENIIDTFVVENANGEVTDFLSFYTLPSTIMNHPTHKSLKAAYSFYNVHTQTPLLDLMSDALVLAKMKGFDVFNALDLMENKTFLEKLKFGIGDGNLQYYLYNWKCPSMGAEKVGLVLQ
Kind of assay: human NMT enzyme inhibition assay. Particulars: mean of two or more determinations. Type of assay: biochemical.
Protocol: as §1

Assay [3] relates to T. brucei. Briefly: T. brucei parasite growth assay. It is filed as cell-based, Trypanosoma brucei. Particulars: Trypanosoma brucei; mean of two or more determinations.
Protocol: as §1

In the case of `COc1cc(C2SCC(=O)N2Cc2ccco2)ccc1O` (centres unmarked) [Compound 2, 3-(Furan-2-ylmethyl)-2-(4-hydroxy-3-methoxyphenyl)thiazolidin-4-one], in assay [1], the “LE TbNMT (ligand efficiency)” value was 0.33. The pIC50 in assay [1] was 5.12; in assay [2], under 4.00. The same compound gave a pEC50 in assay [3] of under 4.30.

For `CCN1C(=O)CSC1c1ccc(O)c(OC)c1` (centres unmarked) [Compound 3, 3-Ethyl-2-(4-hydroxy-3-methoxyphenyl)thiazolidin-4-one], the pIC50 in assay [1] and in assay [2] was under 4.00 throughout.

Regarding `COc1cc(C2SCC(=O)N2c2ccccn2)ccc1O` (centres unmarked) [Compound 4, 2-(4-Hydroxy-3-methoxyphenyl)-3-(pyridin-2-yl)thiazolidin-4-one], the pIC50 in assay [1] and in assay [2] was under 4.00 throughout.

Turning to `COc1cccc(C2SCC(=O)N2Cc2ccco2)c1` (centres unmarked) [Compound 5, 3-(Furan-2-ylmethyl)-2-(3-methoxyphenyl)thiazolidin-4-one], the negative logarithm of the IC50 (pIC50) in assay [1] and in assay [2] was under 4.00 throughout.

`O=C1CSC(c2ccccn2)N1c1cccc(Cl)c1` (centres unmarked) [Compound 7]: the “LE TbNMT (ligand efficiency)” value in assay [1] is 0.36. The results for the pIC50 in assay [1] and in assay [2] were 4.89 and under 4.30, respectively.

Consider `O=C1CSC(c2ccccn2)N1c1ccc2ccccc2c1` (centres unmarked) [Compound 8], for which the pIC50 in assay [1] and in assay [2] was under 4.00 each time.

Turning to `O=C1CSC(c2ccccn2)N1c1ccccc1` (centres unmarked) [Compound 9], in assay [1], the “LE TbNMT (ligand efficiency)” value was 0.35 and the pIC50 is 4.51. The compound further had a pIC50 in assay [2] of 4.18.

On to `O=C1CSC(c2ccccn2)N1c1ccc(Cl)cc1` (centres unmarked) [Compound 10, 3-(4-Chlorophenyl)-2-(pyridin-2-yl)thiazolidin-4-one], for which the pIC50 in assay [1] and in assay [2] was under 4.00 in each case. Besides, the pEC50 in assay [3] was under 4.30.

For the compound `O=C1CSC(c2ccccn2)N1c1ccccc1Cl` (centres unmarked) [Compound 11, 3-(2-Chlorophenyl)-2-(pyridin-2-yl)thiazolidin-4-one], the “LE TbNMT (ligand efficiency)” value in assay [1] is recorded as 0.32. Moreover, the negative-log IC50 (pIC50) in assay [1] is 4.49; in assay [2], under 4.00. Besides, the pEC50 in assay [3] was under 4.30.

Take `CCOC(=O)C(C)N1C(=O)COc2ccccc21` (centres unmarked) [Compound 15, Ethyl 2-(3-oxo-2H-benzo[b][1,4]oxazin-4(3H)-yl)propanoate]: the pIC50 in assay [1] and in assay [2] was under 4.00 each time.

As for `CCOC(=O)CCN1C(=O)COc2ccccc21` [Compound 16, Ethyl 3-(3-oxo-2H-benzo[b][1,4]oxazin-4(3H)-yl)propanoate], in assay [1], the “LE TbNMT (ligand efficiency)” value was 0.38 and the pIC50 is 4.89. This compound also showed a pIC50 in assay [2] of under 4.00.

As to `O=C(CCN1C(=O)COc2ccccc21)N1CCCC1` [Compound 17, 4-(3-Oxo-3-(pyrrolidin-1-yl)propyl)-2H-benzo[b][1,4]oxazin-3(4H)-one], the “LE TbNMT (ligand efficiency)” value in assay [1] is on record as 0.34. The pIC50 in assay [1] was 4.96; in assay [2] it was under 4.00.

Turning to `CN(C)C(=O)CCN1C(=O)COc2ccccc21` [Compound 18, N,N-Dimethyl-3-(3-oxo-2H-benzo[b][1,4]oxazin-4(3H)-yl)propanamide], the pIC50 is 4.30 in assay [1] and under 4.00 in assay [2].

On to `CN(C)C(=O)CN1C(=O)COc2ccccc21` [Compound 19, N,N-Dimethyl-2-(3-oxo-2H-benzo[b][1,4]oxazin-4(3H)-yl)acetamide], for which the pIC50 in assay [1] and in assay [2] was under 4.00 throughout.

Regarding `CNC(=O)CN1C(=O)COc2ccccc21` [Compound 20, N-Methyl-2-(3-oxo-2H-benzo[b][1,4]oxazin-4(3H)-yl)acetamide], the pIC50 in assay [1] and in assay [2] was under 4.00 each time.

Regarding `O=C(CN1C(=O)COc2ccccc21)N1CCCC1` [Compound 21, 4-(2-Oxo-2-(pyrrolidin-1-yl)ethyl)-2H-benzo[b][1,4]oxazin-3(4H)-one], the pIC50 in assay [1] was under 4.00.

In the case of `O=C1COc2ccccc2N1Cc1nc2ccccc2o1` [Compound 22, 4-(Benzo[d]oxazol-2-ylmethyl)-2H-benzo[b][1,4]oxazin-3(4H)-one], in assay [1], the “LE TbNMT (ligand efficiency)” value was 0.31 and the pIC50 was 4.62. This compound also gave a pIC50 in assay [2] of under 4.00.

`Cc1cc(CN2C(=O)COc3ccccc32)no1` [Compound 23, 4-((5-Methylisoxazol-3-yl)methyl)-2H-benzo[b][1,4]oxazin-3(4H)-one]: in assay [1], the “LE TbNMT (ligand efficiency)” value is reported as 0.43 and the pIC50 is 5.54. Moreover, the pIC50 in assay [2] was under 4.00.

Turning to `Cc1nc(CN2C(=O)COc3ccccc32)cs1` [Compound 24, 4-((2-Methylthiazol-4-yl)methyl)-2H-benzo[b][1,4]oxazin-3(4H)-one], in assay [1], the “LE TbNMT (ligand efficiency)” value is recorded as 0.33 and the pIC50 is 4.36. The pIC50 in assay [2] is under 4.00.

For `O=C1COc2ccccc2N1Cc1ccccn1` [Compound 25, 4-(Pyridin-2-ylmethyl)-2H-benzo[b][1,4]oxazin-3(4H)-one], the “LE TbNMT (ligand efficiency)” value in assay [1] is 0.38. Besides, the pIC50 is 4.66 in assay [1] and under 4.00 in assay [2].

For `O=C1COc2ccccc2N1Cc1ccncc1` [Compound 26, 4-(Pyridin-4-ylmethyl)-2H-benzo[b][1,4]oxazin-3(4H)-one], the pIC50 in assay [1] and in assay [2] was under 4.00 each time.

For `Cc1noc(CN2C(=O)COc3ccccc32)n1` [Compound 27, 4-((3-Methyl-1,2,4-oxadiazol-5-yl)methyl)-2H-benzo[b][1,4]oxazin-3(4H)-one], the pIC50 in assay [1] and in assay [2] was under 4.00 in each case.

Take `Cc1nc(CN2C(=O)COc3ccccc32)no1` [Compound 28, 4-((5-Methyl-1,2,4-oxadiazol-3-yl)methyl)-2H-benzo[b][1,4]oxazin-3(4H)-one]: in assay [1], the “LE TbNMT (ligand efficiency)” value is 0.40 and the pIC50 is 5.15. In assay [2], the pIC50 was under 4.00.

As to `CC(C)Cc1nc(CN2C(=O)COc3ccccc32)no1` [Compound 29, 4-((5-Isobutyl-1,2,4-oxadiazol-3-yl)methyl)-2H-benzo[b][1,4]oxazin-3(4H)-one], in assay [1], the “LE TbNMT (ligand efficiency)” value was 0.32 and the pIC50 is 4.74. This compound gave a pIC50 in assay [2] of under 4.00.

Regarding `CC(C)Cc1cc(CN2C(=O)COc3ccccc32)no1` [Compound 30, 4-((5-Isobutylisoxazol-3-yl)methyl)-2H-benzo[b][1,4]oxazin-3(4H)-one], in assay [1], the “LE TbNMT (ligand efficiency)” value was 0.34 and the pIC50 is 5.05. This compound also gave a pIC50 in assay [2] of 4.52.

In the case of `Cc1cccc(CN2C(=O)COc3ccccc32)n1` [Compound 31, 4-((6-Methylpyridin-2-yl)methyl)-2H-benzo[b][1,4]oxazin-3(4H)-one], in assay [1], the “LE TbNMT (ligand efficiency)” value is recorded as 0.31 and the negative logarithm of the IC50 (pIC50) was 4.39. In addition, in assay [2], the pIC50 is 4.16.

With `Cn1ccc(CN2C(=O)COc3ccccc32)n1` [Compound 32, 4-((1-Methyl-1H-pyrazol-3-yl)methyl)-2H-benzo[b][1,4]oxazin-3(4H)-one], the negative-log IC50 (pIC50) was 4.10 in assay [1] and under 4.00 in assay [2].

For the compound `Cc1cc(CN2C(=O)C(C)Oc3ccccc32)no1` (centres unmarked) [Compound 34, 2-Methyl-4-((5-methylisoxazol-3-yl)methyl)-2H-benzo[b][1,4]oxazin-3(4H)-one], the pIC50 in assay [1] and in assay [2] was under 4.00 in each case.

In the case of `Cc1cc(CN2C(=O)COc3ccc(Cl)cc32)no1` [Compound 35, 6-Chloro-4-((5-methylisoxazol-3-yl)methyl)-2H-benzo[b][1,4]oxazin-3(4H)-one], the pIC50 in assay [1] and in assay [2] was under 4.00 in each case.

In the case of `Cc1cc(CN2C(=O)COc3cc(Cl)ccc32)no1` [Compound 36, 7-Chloro-4-((5-methylisoxazol-3-yl)methyl)-2H-benzo[b][1,4]oxazin-3(4H)-one], in assay [1], the “LE TbNMT (ligand efficiency)” value is 0.37 and the pIC50 was 5.15. In assay [2], this compound gave a pIC50 of under 4.00.

With `Cc1cc(CN2C(=O)COc3cc(Br)ccc32)no1` [Compound 37, 7-Bromo-4-((5-methylisoxazol-3-yl)methyl)-2H-benzo[b][1,4]oxazin-3(4H)-one], in assay [1], the “LE TbNMT (ligand efficiency)” value is 0.37. Further, the figures for the pIC50 in assay [1] and in assay [2] were 5.19 and under 4.00, respectively.

In the case of `Cc1cc(CN2C(=O)COc3c(Br)cccc32)no1` [Compound 38, 8-Bromo-4-((5-methylisoxazol-3-yl)methyl)-2H-benzo[b][1,4]oxazin-3(4H)-one], in assay [1], the “LE TbNMT (ligand efficiency)” value is listed as 0.37 and the pIC50 is 4.96. The pIC50 in assay [2] was under 4.00.

One may read the pIC50 as the negative decadic logarithm of the IC50, by convention in mol/L. What is called pEC50 is −log10 of the EC50, conventionally taken in molar units. A lower pEC50 goes with a high EC50.
